Measured values from US8551509B2, “Skin agent for external use and cosmetic agent including ubiquinone derivative or salt thereof and method using the same” (Showa Denko K.K., priority 2006, dated 2013).

What was measured:
[1] = Maximum soluble amount in cosmetic liquid of prescription example 1 (HPLC); assay type: physicochemical; details: 1.0% added to prescription example 1, insolubles filtered off (1-μm filter paper)
Protocol: Specifically, ubiquinone or ubiquinol was added in an amount corresponding to 1.0%. The resultant suspension was filtered through 1-μm filter paper, and thereby insolubles were removed. The cosmetic liquids B and C were thus prepared.
The final concentrations of ubiquinone and ubiquinol in the cosmetic liquids B and C were measured by HPLC similarly to Example 1, resulting in 0.011% and 0.023%, respectively.

[2] = Water solubility at normal temperature; assay type: physicochemical
[3] = tested on: Normal human skin fibroblast cells NB1RGB; details: 3 days, 0.007 %
Protocol: Normal human skin fibroblast cells NB1RGB (spared from RIKEN) were inoculated to a DMEM culture medium including 10% FBS on a 9 cm Petri dish such that the normal human skin fibroblast cells NB1RGB were approximately 1.0×10^5 in number per ml. The cells were cultured in a CO2 incubator at 37° C. for 7 days to reach confluent while the culture medium was exchanged every 3 days. […] After the culture, the cells were cleaned three times on the Petri dish each with 10 ml of PBS(−), and were released and recovered using trypsin/EDTA. The cells were then resuspended in 1 ml of PBS(−), and were quickly broken with a homogenizer. Insoluble matters were removed by centrifugal separation at 10000 rpm for 10 minutes, and 10 μl of the supernatant was subjected to HPLC. The remainder was combined with an equivalent amount of hexane, and these were sufficiently mixed together to give a turbid liquid. The turbid liquid was subjected to centrifugal separation at 10000 rpm for 3 minutes, and the resultant supernatant hexane layer was analyzed by HPLC.
Column: Shodex F-511A (manufactured by Showa Denko K.K)
Column temperature: 40° C.
Eluent: methanol/water/phosphoric acid=1000/5/1
Detection: photodiode array 210 nm-370 nm
In the HPLC analysis, ubiquinone used in Synthetic Example 1 and ubiquinol immediately after synthesized in Synthetic Example 1 were used as references. […]

[4] = Maximum ubiquinone concentration in DMEM culture medium including 10% FBS (HPLC); assay type: physicochemical; details: DMEM with 10% FBS, 0.03% added, stirred 6 hours at room temperature, filtered
Protocol: To a DMEM culture medium including 10% FBS, reagent ubiquinone was added in an amount corresponding to 0.03%. The mixture was stirred with a stirrer at room temperature for 6 hours. The mixture was filtered through a 0.02 µm filter, and a ubiquinone-containing culture medium was prepared.

[5] = Test of radical scavenging ability (H2-DCFDA fluorescence, AAPH); assay type: biochemical; details: final concentration 0.006%, 30 minutes after AAPH addition, 37° C.
Protocol: The resultant solution was added to a 10 mM aqueous sodium hydroxide solution such that the concentration of the agent was 1 mM. The radical fluorescence detecting agent was hydrolyzed in the dark at room temperature for 60 minutes and was activated. The liquid was diluted with Dulbecco's phosphate buffered saline (PBS) to give a diluted liquid with a final concentration of 0.01 mM. […]-40 manufactured by Nihon Emulsion Co., Ltd.). […] The mixture thus prepared was used as a test liquid. A test liquid having a final ubiquinone concentration of 0.006% was prepared in the same manner using ubiquinone. A test liquid was prepared as described above except that the ubiquinone solution was replaced by the same volume of distilled water. This test liquid was used as a negative control. […] The mixture was heated to 37° C. After 30 minutes after the addition, the fluorescence intensity at an excitation wavelength of 495 nm and a fluorescence wavelength of 525 nm of the respective liquids was measured. The fluorescence suppression was obtained as radical scavenging ability of ubiquinone and potassium ubiquinol-1,4-diphosphate.

| Molecule | final concentration in the cosmetic liquid (maximum soluble amount) [1] | water solubility [2] | Concentration in cells after culture: Ubiquinone [3] | ubiquinone concentration in the culture medium (probably the maximum) [4] | Fluorescence intensity (Ex 495/Em 525 nm: relative value) [5] | Radical scavenging ability (Fluorescence suppression (%)) [5] |
| --- | --- | --- | --- | --- | --- | --- |
| COc1c(O)c(C)c(C/C=C(\C)CC/C=C(\C)CC/C=C(\C)CC/C=C(\C)CC/C=C(\C)CC/C=C(\C)CC/C=C(\C)CC/C=C(\C)CC/C=C(\C)CCC=C(C)C)c(O)c1OC [ubiquinol] | 0.023% |  |  |  |  |  |
| COC1=C(OC)C(=O)C(C/C=C(\C)CC/C=C(\C)CC/C=C(\C)CC/C=C(\C)CC/C=C(\C)CC/C=C(\C)CC/C=C(\C)CC/C=C(\C)CC/C=C(\C)CCC=C(C)C)=C(C)C1=O [ubiquinone, 2,3-dimethoxy-5-methyl-6-polyprenyl-1,4-benzoquinone] | 0.011% | less than 100 ppm | 2000 ng/mL | 0.007% | 13315 relative value | 41% |
| tetrapotassium ubiquinol-1,4-diphosphate |  |  |  |  | 5001 relative value | 78% |
